Measurements: PubChem BioAssay (NCI)
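Five compound concentrations were applied to cells in 96-well plates for 48 hours; endpoints were derived by simple linear interpolation of the resulting dose-response curve. GI50 = concentration required for 50% inhibition of growth. TGI denotes the concentration required for complete inhibition of growth.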

How the values were obtained:
Experiment in all cases: NCI tumour cell line growth inhibition, 48 h
RPMI-8226 leukemia = tested on: RPMI-8226 leukemia
MALME-3M melanoma = tested on: MALME-3M melanoma
MCF7 breast = tested on: MCF7 breast
SK-MEL-2 melanoma = tested on: SK-MEL-2 melanoma
HT29 colon = tested on: HT29 colon
OVCAR-3 ovarian = tested on: OVCAR-3 ovarian
BT-549 breast = tested on: BT-549 breast
SF-268 CNS = tested on: SF-268 CNS
LOX IMVI melanoma = tested on: LOX IMVI melanoma
TK-10 renal = tested on: TK-10 renal
SF-539 CNS = tested on: SF-539 CNS
MOLT-4 leukemia = tested on: MOLT-4 leukemia
SK-OV-3 ovarian = tested on: SK-OV-3 ovarian
SNB-75 CNS = tested on: SNB-75 CNS
A498 renal = tested on: A498 renal
HCT-15 colon = tested on: HCT-15 colon
SF-295 CNS = tested on: SF-295 CNS
HOP-62 NSCLC = tested on: HOP-62 NSCLC
NCI/ADR-RES ovarian = tested on: NCI/ADR-RES ovarian
NCI-H522 lung = tested on: NCI-H522 lung
MDA-MB-231 breast = tested on: MDA-MB-231 breast
PC-3 prostate = tested on: PC-3 prostate
U251 CNS = tested on: U251 CNS
SNB-19 CNS = tested on: SNB-19 CNS
NCI-H460 lung = tested on: NCI-H460 lung
MDA-MB-435 = tested on: MDA-MB-435
RXF 393 renal = tested on: RXF 393 renal
T-47D breast = tested on: T-47D breast
HL-60(TB) leukemia = tested on: HL-60(TB) leukemia
ACHN renal = tested on: ACHN renal
COLO 205 colon = tested on: COLO 205 colon
A549 NSCLC = tested on: A549 NSCLC
UACC-62 melanoma = tested on: UACC-62 melanoma
HCC-2998 colon = tested on: HCC-2998 colon
UO-31 renal = tested on: UO-31 renal
KM12 colon = tested on: KM12 colon
SK-MEL-28 melanoma = tested on: SK-MEL-28 melanoma
OVCAR-8 ovarian = tested on: OVCAR-8 ovarian
786-0 renal = tested on: 786-0 renal
M14 melanoma = tested on: M14 melanoma
OVCAR-4 ovarian = tested on: OVCAR-4 ovarian
EKVX NSCLC = tested on: EKVX NSCLC
SN12C renal = tested on: SN12C renal
HS 578T breast = tested on: HS 578T breast
SK-MEL-5 melanoma = tested on: SK-MEL-5 melanoma
DU-145 prostate = tested on: DU-145 prostate
K-562 leukemia = tested on: K-562 leukemia
HCT-116 colon = tested on: HCT-116 colon
OVCAR-5 ovarian = tested on: OVCAR-5 ovarian
IGROV1 ovarian = tested on: IGROV1 ovarian
SW-620 colon = tested on: SW-620 colon
CAKI-1 renal = tested on: CAKI-1 renal

Fc1ccc(-c2ncn(C3CCNCC3)c2-c2ccnc(Oc3cccc(C(F)(F)F)c3)n2)cc1
GI50 (RPMI-8226 leukemia): 4.87 µM
TGI (RPMI-8226 leukemia): 11.7 µM
GI50 (MALME-3M melanoma): 4.66 µM
TGI (MALME-3M melanoma): 10.1 µM
GI50 (MCF7 breast): 3.68 µM
TGI (MCF7 breast): 7.3 µM
GI50 (SK-MEL-2 melanoma): 4.62 µM
TGI (SK-MEL-2 melanoma): 8.84 µM
GI50 (HT29 colon): 2.54 µM
TGI (HT29 colon): 5.54 µM
GI50 (OVCAR-3 ovarian): 3.88 µM
TGI (OVCAR-3 ovarian): 7.26 µM
GI50 (BT-549 breast): 4.34 µM
TGI (BT-549 breast): 9.51 µM
GI50 (SF-268 CNS): 3.64 µM
TGI (SF-268 CNS): 7.37 µM
GI50 (LOX IMVI melanoma): 8.96 µM
TGI (LOX IMVI melanoma): 14.1 µM
GI50 (TK-10 renal): 3.68 µM
TGI (TK-10 renal): 7.22 µM
GI50 (SF-539 CNS): 3.92 µM
TGI (SF-539 CNS): 7.68 µM
GI50 (MOLT-4 leukemia): 4.15 µM
TGI (MOLT-4 leukemia): 9.48 µM
GI50 (SK-OV-3 ovarian): 3.82 µM
TGI (SK-OV-3 ovarian): 7.31 µM
GI50 (SNB-75 CNS): 2.01 µM
TGI (SNB-75 CNS): 6.52 µM
GI50 (A498 renal): 1.37 µM
TGI (A498 renal): 6.91 µM
GI50 (HCT-15 colon): 3.79 µM
TGI (HCT-15 colon): 7.25 µM
GI50 (SF-295 CNS): 3.92 µM
TGI (SF-295 CNS): 8.1 µM
GI50 (HOP-62 NSCLC): 3.75 µM
TGI (HOP-62 NSCLC): 7.47 µM
GI50 (NCI/ADR-RES ovarian): 4.27 µM
TGI (NCI/ADR-RES ovarian): 9.03 µM
GI50 (NCI-H522 lung): 4.03 µM
TGI (NCI-H522 lung): 7.95 µM
GI50 (MDA-MB-231 breast): 3.96 µM
TGI (MDA-MB-231 breast): 7.56 µM
GI50 (PC-3 prostate): 3.7 µM
TGI (PC-3 prostate): 7.2 µM
GI50 (U251 CNS): 3.61 µM
TGI (U251 CNS): 7.08 µM
GI50 (SNB-19 CNS): 3.94 µM
TGI (SNB-19 CNS): 7.67 µM
GI50 (NCI-H460 lung): 3.82 µM
TGI (NCI-H460 lung): 7.81 µM
GI50 (MDA-MB-435): 3.99 µM
TGI (MDA-MB-435): 8.15 µM
GI50 (RXF 393 renal): 2.66 µM
TGI (RXF 393 renal): 6.42 µM
GI50 (T-47D breast): 2.93 µM
TGI (T-47D breast): 6.43 µM
GI50 (HL-60(TB) leukemia): 4.58 µM
TGI (HL-60(TB) leukemia): 9.6 µM
GI50 (ACHN renal): 3.29 µM
TGI (ACHN renal): 6.47 µM
GI50 (COLO 205 colon): 3.83 µM
TGI (COLO 205 colon): 7.45 µM
GI50 (A549 NSCLC): 4.23 µM
TGI (A549 NSCLC): 7.94 µM
GI50 (UACC-62 melanoma): 4.05 µM
TGI (UACC-62 melanoma): 7.59 µM
GI50 (HCC-2998 colon): 3.92 µM
TGI (HCC-2998 colon): 8.35 µM
GI50 (UO-31 renal): 2.8 µM
TGI (UO-31 renal): 6.41 µM
GI50 (KM12 colon): 3.93 µM
TGI (KM12 colon): 7.36 µM
GI50 (SK-MEL-28 melanoma): 3.62 µM
TGI (SK-MEL-28 melanoma): 6.93 µM
GI50 (OVCAR-8 ovarian): 4.17 µM
TGI (OVCAR-8 ovarian): 8.58 µM
GI50 (786-0 renal): 3.82 µM
TGI (786-0 renal): 7.49 µM
GI50 (M14 melanoma): 4.54 µM
TGI (M14 melanoma): 8.73 µM
GI50 (OVCAR-4 ovarian): 3.62 µM
TGI (OVCAR-4 ovarian): 7.26 µM
GI50 (EKVX NSCLC): 3.63 µM
TGI (EKVX NSCLC): 8.3 µM
GI50 (SN12C renal): 3.93 µM
TGI (SN12C renal): 7.47 µM
GI50 (HS 578T breast): 1.98 µM
TGI (HS 578T breast): 7.07 µM
GI50 (SK-MEL-5 melanoma): 3.28 µM
TGI (SK-MEL-5 melanoma): 6.5 µM
GI50 (DU-145 prostate): 3.99 µM
TGI (DU-145 prostate): 7.37 µM
GI50 (K-562 leukemia): 3.8 µM
TGI (K-562 leukemia): 9.12 µM
GI50 (HCT-116 colon): 3.65 µM
TGI (HCT-116 colon): 7.29 µM
GI50 (OVCAR-5 ovarian): 3.21 µM
TGI (OVCAR-5 ovarian): 6.37 µM
GI50 (IGROV1 ovarian): 3.67 µM
TGI (IGROV1 ovarian): 7.88 µM
GI50 (SW-620 colon): 3.56 µM
TGI (SW-620 colon): 7.03 µM
GI50 (CAKI-1 renal): 4.38 µM
TGI (CAKI-1 renal): 9.12 µM
